# Measured values published in patent US12161722B2, “Bifunctional heterocyclic compound having BTK degradation function via ubiquitin proteasome pathway, and use thereof” (KOREA RESEARCH INSTITUTE OF CHEMICAL TECHNOLOGY, priority 2021, dated 2024).
# How the values were obtained:
# WT BTK protein = molecular target: T1, WT BTK protein (Homo sapiens, UniProt Q06187); test: BTK protein degradation assay (Western blotting), WT BTK; assay type: cell-based; conditions: concentration range accounting for 50% degradation of WT BTK protein, TMD-8 or RAMOS cells, 24 hours
# T1 construct: measured for intracellular BTK protein levels by Western blotting; endogenous in cells; host or cells: TMD-8 or RAMOS cells
# T1 sequence (Q06187 whole entry): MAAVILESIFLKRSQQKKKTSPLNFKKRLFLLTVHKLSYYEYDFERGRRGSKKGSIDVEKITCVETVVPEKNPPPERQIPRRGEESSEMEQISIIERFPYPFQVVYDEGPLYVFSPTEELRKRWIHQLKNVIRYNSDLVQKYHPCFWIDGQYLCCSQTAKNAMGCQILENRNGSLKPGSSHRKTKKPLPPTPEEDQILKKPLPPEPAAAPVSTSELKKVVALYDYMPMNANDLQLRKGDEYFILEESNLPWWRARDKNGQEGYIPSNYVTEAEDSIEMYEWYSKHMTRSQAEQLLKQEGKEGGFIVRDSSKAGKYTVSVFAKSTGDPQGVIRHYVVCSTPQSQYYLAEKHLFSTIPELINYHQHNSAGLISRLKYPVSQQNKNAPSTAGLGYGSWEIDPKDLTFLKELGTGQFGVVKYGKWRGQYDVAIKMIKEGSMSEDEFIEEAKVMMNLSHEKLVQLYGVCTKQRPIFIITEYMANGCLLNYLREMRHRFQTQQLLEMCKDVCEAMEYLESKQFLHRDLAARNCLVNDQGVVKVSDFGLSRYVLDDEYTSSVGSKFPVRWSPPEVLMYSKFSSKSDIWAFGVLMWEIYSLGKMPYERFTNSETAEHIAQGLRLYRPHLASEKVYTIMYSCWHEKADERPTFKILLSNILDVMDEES
# Method in brief: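 TMD-8 cells (1×10^6 cells/mL) treated 24 h with compound serial dilutions, then lysed in RIPA. Equal protein loads analysed by Western blot for BTK with GAPDH/β-actin as loading controls; activity binned by concentration giving 50% WT BTK degradation.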
# C481S BTK protein = molecular target: T2, C481S BTK protein (Homo sapiens, UniProt Q06187, C481S); test: BTK protein degradation assay (Western blotting), C481S BTK; assay type: cell-based; conditions: concentration range accounting for 50% degradation of C481S BTK protein, 293T BTK MUT (C481S) cells
# T2 construct: expressed in transfected cells; host or cells: 293T BTK MUT (C481S) cells
# T2 sequence (Q06187 whole entry C481S): as the sequence (Q06187 whole entry) above, with C481S counted along it
# Description: TMD-8, RAMOS, or 293T BTK MUT (C481S) cells were treated with the synthesized compounds and measured for intracellular BTK protein levels by Western blotting. The protocol of the experiment using TMD-8 cells is as follows.
# The 12-well plates were treated as follows. A 10 mM stock was 1/10 diluted in series with DMSO ([…]) to form final concentrations of 10, 1, 0.1, 0.01, 0.001, and 0.0001 mM. The compounds with such concentrations were applied to cells, followed by harvesting the cells 24 hours later. For a negative control, a 1/10 dilution of DMSO in the medium (3 mL DMSO+27 mL medium) was used.
# The 1-mL cell culture in each well was passed many times through a pipette and then transferred into a 1.5-mL microtube before centrifugation (500 g, 5 min, 4° C.). The supernatant was discarded and the cell pellet was washed with PBS. After centrifugation (500 g, 5 min, 4° C.) again, the supernatant was discarded and the cell pellet was taken.
# A lysis buffer was prepared as follows. RIPA buffer (Biosesang, RC2038-050-00)+0.5 mM PMSF (SIGMA, P7626)+1×Protease/Phosphatase Inhibitor (Cell signaling, 5872S) was added in an amount […] per well and left for 30 minutes on ice (vortexing at 0 and 30 minutes) before sonication (5 cycles of pulse for 10 seconds and rest for 30 seconds, 70% amplification). The supernatant obtained by centrifugation (15000 g, 15 min, 4° C.) was transferred into a new microtube. Cells in each well of 96-well plates were 1/2 diluted with the RIPA buffer and incubated at 37° C. for 30 minutes with […] of a 50:1 mixture of BCA reagents A and B in BCA Protein Assay Kit (iNtRON, 21071). After being cooled for 10 minutes, the 96-well plates were measured for absorbance at 562 nm on the BioTek, SYNERGY H1 microplate reader. Samples were prepared by protein quantification based on the absorbance measurements and then boiled at 70° C. for 10 minutes. The sample buffer used in the case was prepared by mixing a NuPAGE or a Bolt 4× sample buffer (Invitrogen) and its 10× sample reducing agent depending on the gel to be used, and protein dilution was made in a RIPI buffer.
# The samples were loaded in the same amount into a NuPAGE or Bolt Bis-tris 4-12% gradient gel and allowed to run therein (200 V, 35 minutes). The separated proteins were transferred onto a […] NC membrane, using Trans-blot Turbo (BIO-RAD) (1.3 A constant, 25V limit, 15 minutes). The membrane was blocked at room temperature for 1 hour with skim milk or Intercept Blocking Buffer (LI-COR, 927-60001):0.1% TBST=1:1. The membrane was incubated with Anti BTK Rabbit (1:1,000 in 5% skim milk/0.2% TBST, size: 77 kDa, Cell signaling Technology) at 4° C. overnight O/N or at room temperature for 2 hours and with Anti GAPDH Rabbit (1:10,000 in 5% BSA/0.2% TBST, size: 36 kDa, GENETEX) and Anti β-actin mouse (1:10,000 in 5% BSA/0.2% TBST, RT, size: 43 kDa, GENETEX) at room temperature for 1 or 3 hours. Then, the membrane was washed three times with 0.5% TBST for 5 minutes each time before incubation with the second antibody Anti-Rabbit IgG (1:5,000 in 5% Skim milk/TBST, CST), IRDye® 800CW Goat anti-Rabbit IgG Secondary Antibody (1:10,000 in 5% skim/TBST, RT 45 min), or IRDye® 680RD Goat anti-Mouse IgG Secondary Antibody (1:10,000 in 5% skim/TBST, RT 45 min) for 45 minutes at room temperature in a rocker. The membrane was washed five times with 0.5% TBST for 5 minutes in each time, followed by detection with LI-COR, Odyssey. In this regard, the detection proceeded, as it was, for house-keeping genes while using SuperSignal West Pico PLUS Chemiluminescent Substrate or SuperSignal West femto Maximum Sensitivity Substrate for BTK detection.
# According to the concentration ranges of compounds accounting for 50% degradation of WT BTK protein and C481S BTK protein, the activities are expressed as +++(0.0001-0.01 μM), ++(0.01-1 μM), +(1-10 μM), −(>10 μM), and NT (not tested). […]
Compound,DC50 (WT BTK protein) [nM],DC50 (C481S BTK protein) [nM]
"Cc1cccc(C)c1Nc1nn(C)c2nc(Nc3ccc4c(c3)CN(C3CCN(c5ccc6c(c5)C(=O)N(C5CCC(=O)NC5=O)C6=O)CC3)CC4)ncc12 (centres unmarked) [Compound 88, 5-(4-(7-((3-((2,6-dimethylphenyl)amino)-1-methyl-1H-pyrazolo[3,4-d]pyrimidin-6-yl)amino)-3,4-dihydroisoquinolin-2 (1H)-yl)piperidin-1-yl)-2-(2,6-dioxopiperidin-3-yl)isoindoline-1,3-dione]",0.1 to 10,0.1 to 10
"Cc1cccc(C)c1Nc1nn(C)c2nc(Nc3ccc4c(c3)CN(CCOCCNC(=O)C3CCN(c5cccc6c5C(=O)N(C5CCC(=O)NC5=O)C6=O)CC3)CC4)ncc12 (centres unmarked) [Compound 24, N-(2-(2-(7-((3-((2,6-Dimethylphenyl)amino)-1-methyl-1H-pyrazolo[3,4-d]pyrimidin-6-yl)amino)-3,4-dihydroisoquinolin-2 (1H)-yl)ethoxy)ethyl)-1-(2-(2,6-dioxopiperidin-3-yl)-1,3-dioxoisoindolin-4-yl)piperidine-4-carboxamide]",0.1 to 10,1000 to 10000
"Cc1cccc(C)c1Nc1nn(C)c2nc(Nc3ccc4c(c3)CN(C(=O)COCCOCCNc3ccc5c(c3)C(=O)N(C3CCC(=O)NC3=O)C5=O)CC4)ncc12 (centres unmarked) [Compound 2, 5-((2-(2-(2-(7-((3-((2,6-Dimethylphenyl)amino)-1-methyl-1H-pyrazolo[3,4-d]pyrimidin-6-yl)amino)-3,4-dihydroisoquinolin-2 (1H)-yl)-2-oxoethoxy)ethoxy)ethyl)amino)-2-(2,6-dioxopiperidin-3-yl)isoindoline-1,3-dione]",0.1 to 10,10 to 1000
"Cc1cccc(C)c1Nc1nn(C)c2nc(Nc3ccc4c(c3)CN(C(=O)COCCOCCOCCOCCNC(=O)C3CCN(c5cccc6c5C(=O)N(C5CCC(=O)NC5=O)C6=O)CC3)CC4)ncc12 (centres unmarked) [Compound 5, N-(14-(7-((3-((2,6-Dimethylphenyl)amino)-1-methyl-1H-pyrazolo[3,4-d]pyrimidin-6-yl)amino)-3,4-dihydroisoquinolin-2 (1H)-yl)-14-oxo-3,6,9,12-tetraoxatetradecyl)-1-(2-(2,6-dioxopiperidin-3-yl)-1,3-dioxoisoindolin-4-yl)piperidine-4-carboxamide]",10 to 1000,10 to 1000
"Cc1cccc(Cl)c1Nc1nn(C)c2nc(Nc3ccc4c(c3)CN(CC3CCN(c5ccc6c(c5)C(=O)N(C5CCC(=O)NC5=O)C6=O)CC3)CC4)ncc12 (centres unmarked) [Compound 85, 5-(4-((7-((3-((2-Chloro-6-methylphenyl)amino)-1-methyl-1H-pyrazolo[3,4-d]pyrimidin-6-yl)amino)-3,4-dihydroisoquinolin-2 (1H)-yl)methyl)piperidin-1-yl)-2-(2,6-dioxopiperidin-3-yl)isoindoline-1,3-dione]",0.1 to 10,0.1 to 10
"Cc1cccc(C)c1Nc1nn(C)c2nc(Nc3ccc4c(c3)CN(C(=O)COCCOCCOCCOCCNc3ccc5c(c3)C(=O)N(C3CCC(=O)NC3=O)C5=O)CC4)ncc12 (centres unmarked) [Compound 8, 5-((14-(7-((3-((2,6-Dimethylphenyl)amino)-1-methyl-1H-pyrazolo[3,4-d]pyrimidin-6-yl)amino)-3,4-dihydroisoquinolin-2 (1H)-yl)-14-oxo-3,6,9,12-tetraoxatetradecyl)amino)-2-(2,6-dioxopiperidin-3-yl)isoindoline-1,3-dione]",0.1 to 10,10 to 1000
"Cc1cccc(C)c1Nc1nn(C)c2nc(Nc3ccc4c(c3)CN(C(=O)COCCOCCOCCOCCNC(=O)COc3ccc5c(c3)C(=O)N(C3CCC(=O)NC3=O)C5=O)CC4)ncc12 (centres unmarked) [Compound 9, N-(14-(7-((3-((2,6-Dimethylphenyl)amino)-1-methyl-1H-pyrazolo[3,4-d]pyrimidin-6-yl)amino)-3,4-dihydroisoquinolin-2 (1H)-yl)-14-oxo-3,6,9,12-tetraoxatetradecyl)-2-((2-(2,6-dioxopiperidin-3-yl)-1,3-dioxoisoindolin-5-yl)oxy)acetamide]",10 to 1000,> 10000
"Cc1cccc(C)c1Nc1nn(C)c2nc(Nc3ccc4c(c3)CN(C(=O)[C@H]3CCCN3C(=O)C3CCN(c5ccc6c(c5)C(=O)N(C5CCC(=O)NC5=O)C6=O)CC3)CC4)ncc12 (stereo partly drawn) [Compound 26, 5-(4-((R)-2-(7-((3-((2,6-Dimethylphenyl)amino)-1-methyl-1H-pyrazolo[3,4-d]pyrimidin-6-yl)amino)-1,2,3,4-tetrahydroisoquinoline-2-carbonyl)pyrrolidine-1-carbonyl)piperidin-1-yl)-2-(2,6-dioxopiperidin-3-yl)isoindoline-1,3-dione]",0.1 to 10,1000 to 10000
"Cc1cccc(C)c1Nc1nn(C)c2nc(Nc3ccc4c(c3)CN(CC3CCN(C(=O)C5CCN(c6ccc7c(c6)C(=O)N(C6CCC(=O)NC6=O)C7=O)CC5)CC3)CC4)ncc12 (centres unmarked) [Compound 28, 5-(4-(4-((7-((3-((2,6-Dimethylphenyl)amino)-1-methyl-1H-pyrazolo[3,4-d]pyrimidin-6-yl)amino)-3,4-dihydroisoquinolin-2 (1H)-yl)methyl)piperidine-1-carbonyl)piperidin-1-yl)-2-(2,6-dioxopiperidin-3-yl)isoindoline-1,3-dione]",0.1 to 10,0.1 to 10
"Cc1cccc(C)c1Nc1nn(C)c2nc(Nc3ccc4c(c3)CN(C3CN(CC5CCN(c6ccc7c(c6)C(=O)N(C6CCC(=O)NC6=O)C7=O)CC5)C3)CC4)ncc12 (centres unmarked) [Compound 149, 5-(4-((3-(7-((3-((2,6-Dimethylphenyl)amino)-1-methyl-1H-pyrazolo[3,4-d]pyrimidin-6-yl)amino)-3,4-dihydroisoquinolin-2 (1H)-yl)azetidin-1-yl)methyl)piperidin-1-yl)-2-(2,6-dioxopiperidin-3-yl)isoindoline-1,3-dione]",0.1 to 10,0.1 to 10
"Cc1cccc(C)c1Nc1nn(C)c2nc(Nc3ccc4c(c3)CN(C(=O)CCOCCOCCOCCOCCNC(=O)COc3ccc5c(c3)C(=O)N(C3CCC(=O)NC3=O)C5=O)CC4)ncc12 (centres unmarked) [Compound 16, N-(15-(7-((3-((2,6-Dimethylphenyl)amino)-1-methyl-1H-pyrazolo[3,4-d]pyrimidin-6-yl)amino)-3,4-dihydroisoquinolin-2 (1H)-yl)-15-oxo-3,6,9,12-tetraoxapentadecyl)-2-((2-(2,6-dioxopiperidin-3-yl)-1,3-dioxoisoindolin-5-yl)oxy)acetamide]",0.1 to 10,1000 to 10000
Cc1cccc(C)c1Nc1nn(C)c2nc(Nc3ccc4c(c3)CN(C(=O)C3CCN(C(=O)CNc5ccc6nnn(C7CCC(=O)NC7=O)c(=O)c6c5)CC3)CC4)ncc12 (centres unmarked) [Compound 57],0.1 to 10,10 to 1000
Cc1cccc(C)c1Nc1nn(C)c2nc(Nc3ccc4c(c3)CN(C(=O)COCCOCCOCCOCCNc3cccc5c3C(=O)N(C3CCC(=O)NC3=O)C5=O)CC4)ncc12 (centres unmarked) [Compound 13],0.1 to 10,1000 to 10000
